The text below walks through data of patent publication US10300052B2, “Methods for increasing CFTR activity” (THE UAB RESEARCH FOUNDATION, priority 2012, dated 2019).

SMILES strings stand for the structures.

The subject of one experiment is porcine trachea CFTR+/+. Nature of the experiment: μOCT imaging of airway epithelial function in porcine trachea, CFTR+/+ animals. The settings on record: ivacaftor 10 μM in bath, 37° C. (FIG. 7H). The text has this:
FIGS. 7A-7H show the effects of CFTR activators on airway epithelial function in intact porcine trachea by μOCT. FIGS. 7A-7B show representative μOCT images for a CFTR−/− (FIG. 7A) and CFTR+/+ (FIG. 7B) animal. FIGS. 7C-7F, respectively, show ASL depth (FIG. 7C), PCL depth (FIG. 7D), CBF (FIG. 7E) and MCT (FIG. 7F) measurements derived from μOCT images from CFTR−/− and CFTR+/+ animals. FIGS. 7G and 7H show the response of epithelial functional parameters, namely ASL depth and MCT in CFTR−/− (FIG. 7G) and CFTR+/+(FIG. 7H) animals in response to sequential pharmacologic intervention by ivacaftor (10 μM), forskolin (100 nM) and acetylcholine (100 μM).
To further investigate the role of CFTR activators in modulating airway epithelial cell function, CFTR activators were studied in combination with porcine trachea. In this example, porcine trachea from animals having a mutated CFTR (CFTR (−/−) and from animals having a WT-CFTR (CFTR+/+) were evaluated for ASL depth, PCL depth, CBF and MCT. The results are shown in FIGS. 7A-7H.
FIGS. 7G and 7H show the response of epithelial functional parameters, namely ASL depth, CBF and MCT in CFTR−/− and CFTR+/+ animals in response to sequential pharmacologic intervention by ivacaftor (10 μM), forskolin (100 nM) and acetylcholine (100 μM); in this experiment, acetylcholine served as a positive control to induce glandular extrusion in CF tissue). In these experiments, agonists were added to the bath solution and all experiments were conducted under physiological conditions (37° C. and 100% humidity). […] In contrast to FIG. 7G, ASL depth, CBF and MCT were all increased in response to ivacaftor treatment in CFTR+/+ animals, consistent with the results described above for human tissue.
Normal piglet tracheas were obtained from Exemplar Genetics (Sioux Center, Iowa). Tissue were dissected from one-day-old piglets and shipped on wet ice in DMEM. A modified protocol based on airway tissue handling and preparation methods developed by Ballard et al. (Am J Physiol Lung Cell Mol Physiol 298: L270-276, 2010) was employed. […]

The next experiment has as its target G551D-CFTR (Homo sapiens, UniProt P13569, G551D). Details: host or cells: CF patients carrying G551D-CFTR (endogenous protein). The settings on record: CF patients with G551D-CFTR; reported; cited from earlier work.
The next experiment addresses T1, WT-CFTR (Homo sapiens, UniProt P13569).
T1 construct: expressed in transfected cells
The experiment can be described thus: Short-circuit current (Isc) in Ussing chambers, CFBE41o- cells with stable WT-CFTR expression. Format: cell-based. The settings on record: ivacaftor 10 μM after amiloride 100 μM and forskolin 100 nM, Cl- secretory gradient; CFBE41o- with stable WT-CFTR (FIG. 1A). As for the experimental part: CFBE41o-cells complemented by stable expression of WT-CFTR (by a lentivirus promoter) are shown in comparison to CFBE41o-cells without WT CFTR complementation (parental cells). *P<0.05, **P<0.005, n=5/condition.
The CFTR potentiator ivacaftor was chosen as an exemplary CFTR activator. The activity of ivacaftor was examined in WT-CFTR expressing cells.
Short-circuit current (Isc) was measured under voltage clamp conditions using MC8 voltage clamps and P2300 Ussing chambers (Physiologic Instruments, San Diego, Calif.) as previously described (2). Monolayers were initially bathed on both sides with identical Ringer's solutions containing (in mM) 115 NaCl, 25 NaHCO3, 2.4 KH2PO4, 1.24 K2HPO4, 1.2 CaCl2, 1.2 MgC2, 10 D-glucose (pH 7.4). Bath solutions were vigorously stirred and gassed with 95%02:5% CO2. Short-circuit current measurements were obtained using an epithelial voltage clamp (Physiologic Instruments). A one-second three-mV pulse was imposed every 10 seconds to monitor resistance calculated using Ohm's law. Where indicated, the mucosal bathing solution was changed to a low Cl-solution containing 1.2 NaCl and 115 Na+ gluconate, and all other components as above. Amiloride (100 μM) was added to block residual Na+ current, followed by the agonists forskolin, ivacaftor, and ATP as indicated (minimum five-min observation at each concentration). […]

Sequence of G551D-CFTR (P13569 whole entry G551D): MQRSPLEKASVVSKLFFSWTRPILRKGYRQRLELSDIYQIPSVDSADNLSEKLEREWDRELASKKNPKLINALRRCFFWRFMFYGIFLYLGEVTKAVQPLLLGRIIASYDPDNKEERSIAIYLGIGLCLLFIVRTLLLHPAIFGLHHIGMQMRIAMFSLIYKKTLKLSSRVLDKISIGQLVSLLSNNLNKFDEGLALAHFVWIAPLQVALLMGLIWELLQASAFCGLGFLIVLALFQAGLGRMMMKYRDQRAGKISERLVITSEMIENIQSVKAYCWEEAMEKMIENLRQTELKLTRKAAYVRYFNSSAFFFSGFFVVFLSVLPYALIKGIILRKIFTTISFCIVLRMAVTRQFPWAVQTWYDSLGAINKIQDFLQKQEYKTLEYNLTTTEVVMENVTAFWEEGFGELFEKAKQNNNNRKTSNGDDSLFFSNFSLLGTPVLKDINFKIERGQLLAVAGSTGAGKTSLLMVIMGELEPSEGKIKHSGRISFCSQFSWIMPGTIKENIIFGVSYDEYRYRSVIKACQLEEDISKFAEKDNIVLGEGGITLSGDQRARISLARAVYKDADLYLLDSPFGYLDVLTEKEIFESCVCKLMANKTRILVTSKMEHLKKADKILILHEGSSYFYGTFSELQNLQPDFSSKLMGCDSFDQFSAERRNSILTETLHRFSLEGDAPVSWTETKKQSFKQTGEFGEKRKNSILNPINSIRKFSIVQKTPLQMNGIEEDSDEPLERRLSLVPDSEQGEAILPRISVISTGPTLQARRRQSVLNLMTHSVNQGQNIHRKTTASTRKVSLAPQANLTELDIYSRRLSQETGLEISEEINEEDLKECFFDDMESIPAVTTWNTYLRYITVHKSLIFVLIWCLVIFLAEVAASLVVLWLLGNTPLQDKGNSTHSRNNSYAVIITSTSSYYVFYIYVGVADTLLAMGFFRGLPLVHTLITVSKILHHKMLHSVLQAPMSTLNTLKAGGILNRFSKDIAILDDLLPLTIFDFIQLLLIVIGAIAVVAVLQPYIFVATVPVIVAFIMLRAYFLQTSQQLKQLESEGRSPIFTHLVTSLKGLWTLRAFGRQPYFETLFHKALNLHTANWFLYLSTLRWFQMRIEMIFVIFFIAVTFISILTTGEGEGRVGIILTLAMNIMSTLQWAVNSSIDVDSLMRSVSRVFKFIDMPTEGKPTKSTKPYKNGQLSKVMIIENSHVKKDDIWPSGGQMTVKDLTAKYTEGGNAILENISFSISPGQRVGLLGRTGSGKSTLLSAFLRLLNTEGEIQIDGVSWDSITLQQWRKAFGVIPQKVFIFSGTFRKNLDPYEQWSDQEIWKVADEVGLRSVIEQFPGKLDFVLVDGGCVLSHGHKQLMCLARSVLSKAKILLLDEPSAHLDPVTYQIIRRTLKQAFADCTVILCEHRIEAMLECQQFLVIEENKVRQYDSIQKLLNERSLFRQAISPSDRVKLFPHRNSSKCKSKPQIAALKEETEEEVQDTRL
T1 sequence (P13569 whole entry): as the sequence (P13569 whole entry G551D) above, with D551G counted along it

Regarding `CC(C)(C)c1cc(C(C)(C)C)c(NC(=O)c2c[nH]c3ccccc3c2=O)cc1O` [ivacaftor], in the experiment with porcine trachea CFTR+/+, the ASL depth response result was “increased”, the CBF response entry is “increased” and the MCT response result was “increased”. At G551D-CFTR, the “measures of CFTR activity” value is reported as “improved” and the pulmonary function result is given as “enhanced”. The “anion transport (Isc)” value on WT-CFTR is “robust increases”.
